The source of these data is patent publication US20120134933A1, “USE OF HIGH-DOSES OF MONOMERIC CONTRAST MEDIUM CONTAINING IODINE IN X-RAY DIAGNOSTICS, IN PARTICULAR IN INTERVENTIONAL X-RAY DIAGNOSTICS AND IN RADIATION THERAPY ASSISTED BY CONTRAST MEDIA CONTAINING IODINE” (BAYER PHARMA AKTIENGESELLSCHAFT, priority 2009, published 2012).

Holding throughout (type): in vivo, Wistar Han rats
One data set deals with tubular cells. As to the kind of experiment: Vacuolization in the kidney 24 hours after injection of XCM (histology of paraffin sections). The conditions noted are these: rat, 4 g of iodine per kg of BW i.v.; for degree of vacuolization in the kidney (in words): compared among monomeric XCMs. As for the experimental part: (§1) For the study, use was made of the following XCMs, each obtained from their producer. The monomeric XCMs investigated were iopromide 300 (Bayer Vital, Leverkusen), iomeprol 300 (Altana, Konstanz, Germany), and iohexyl 350 (Omnipaque, GE Healthcare, Munich, Germany). For comparison, Isovist 300 (Bayer Vital, Leverkusen) and iodixanol 320 and iodixanol 270 (Visipaque, GE Healthcare, Munich, Germany), two dimeric XCMs, were also included in the study. The XCMs were injected in one dose of 4 g per kg of body weight (BW). As with all toxicological issues, it should be noted that the conversion to the human dose has to be based on body surface area. Thus, 4 g of iodine per kg of BW in the rat correspond to about 0.6 g of iodine per kg of BW in humans.
(§2) Wistar Han (CRL: WI) rats (male; 230-300 g) were obtained from Charles River (Sulzfeld, Germany). The animals were kept under normal laboratory conditions at a temperature of 22° C. and a night/day rhythm of 12 hours. The animals had access to standard feed and water ad libitum. The animals were kept and treated in accordance with the German animal welfare guidelines.
(§3) The respective XCMs were intravenously (i.v.) injected in one dose of 4 g of iodine per kg of BW (corresponds to 0.6 g of iodine per kg of BW in humans) into the tail vein. The XCMs were manually injected as a bolus, followed by a 0.2 ml bolus of saline solution. Each test group consisted of 6 test animals. The iodine concentrations in the kidneys were determined ex vivo by X-ray fluorescence analysis (XFA). 24 hours after the XCM injection, the animals were sacrificed and both kidneys were removed. The kidneys were lysed in 10% KOH, and the iodine concentration in the sample was subsequently determined by XFA. The iodine concentrations in the renal cortex were determined 24 hours after the injection using a 64-slice CT scanner (Sensation 64, Siemens Medical Solutions, Erlangen, Germany). Scanner settings (80 kV, 120 mAseff) were used for all investigations, and the reconstructions were carried out with an image field of 70×70 mm and a thickness of 1 mm The X-ray attenuation in Hounsfield units (HU) was determined in the cortex of the kidney in 3 independent regions of interest (ROI) (FIG. 2). All data were carried out by two independent blinded readers.
To determine the degree of vacuolization, a kidney was removed 24 after the injection of the XCMs and a medial piece of tissue was fixed in formaldehyde and embedded in paraffin. The microtome sections were stained with hematoxylin, and the degree of vacuolization was determined. The determination of the degree of vacuolization was carried out in a blinded experiment by Dr. Haider, Institut für Tierpathologie [Institute for Animal Pathology].

A short description of data set [1]: Renal iodine content 24 hours after injection of XCM, X-ray fluorescence analysis (XFA) of lysed kidneys. The conditions noted are these: rat, 4 g of iodine per kg of BW i.v., mean +/- SD, 6 animals. The procedure: as §1, §2
as §3, with “The XCMs were manually injected as a bolus, followed by a 0.2 ml bolus of saline solution. Each test group consisted of 6 test animals.” left out, “24 hours after the XCM injection, the animals were sacrificed and both kidneys were removed.” left out

Data set [2] in a line: Renal cortex iodine content 24 hours after injection of XCM, X-ray attenuation by CT. The conditions noted are these: rat, 4 g of iodine per kg of BW i.v., 80 kV, mean +/- SD, 6 animals. As for the experimental part: as §1, §2
as §3, with “The XCMs were manually injected as a bolus, followed by a 0.2 ml bolus of saline solution. Each test group consisted of 6 test animals.” left out, “24 hours after the XCM injection, the animals were sacrificed and both kidneys were removed.” left out

Where [3] appears, read: of 6 animals, listed as Iopromide 300.
Setting [4] is: of 6 animals, listed as iopromide.

As for `CC(=O)N(CC(O)CO)c1c(I)c(C(=O)NCC(O)CO)c(I)c(C(=O)NCC(O)CO)c1I` (centres unmarked) [iohexyl 350], the “degree of vacuolization in the kidney (in words)” value (“degree … (in words)” for short) in the data set on tubular cells is “increased vacuolization”. In addition, in the data set on tubular cells (of 6 animals), the “Moderate degree of vacuolization (number of animals)” value was 3 and the “Slight degree of vacuolization (number of animals)” value (from here on “Slight degree of vacuolization”) turned out to be 3.
Turning to `CN(C(=O)CO)c1c(I)c(C(=O)NCC(O)CO)c(I)c(C(=O)NCC(O)CO)c1I` (centres unmarked) [iomeprol 300], the “iodine concentration in the kidney (XFA)” value in data set [1] is given as 0.738+/−0.098 mg of iodine per g of kidney tissue. The “degree … (in words)” value in the data set on tubular cells is recorded as “increased vacuolization”. Also, the “Slight degree of vacuolization” value in the data set with tubular cells (of 6 animals) is given as “all the animals investigated”; in the data set with tubular cells (of 6 animals, listed as Iomeprol 300), 6. For the same molecule, in data set [2], the “X-ray attenuation in the renal cortex (CT)” value (shortened to “X-ray attenuation”) is 45.0+/−5.9 HU.
Consider `COCC(=O)Nc1c(I)c(C(=O)NCC(O)CO)c(I)c(C(=O)N(C)CC(O)CO)c1I` (centres unmarked) [iopromide 300, N,N′-bis(2,3-dihydroxypropyl)-2,4,6-triiodo-5-[(methoxyacetyl)amino]-N-methyl-1,3-benzenedicarboxamide], for which, in data set [1], the “iodine concentration in the kidney (XFA)” value was “significantly lowest iodine contents”. Further, the “degree … (in words)” value in the data set with tubular cells is reported as “lowest degree of vacuolization”. Also, the results for the “No vacuolization (number of animals)” value with tubular cells (setting [3]) and with tubular cells (setting [4]) were 2 and “Two”, respectively. Also, the “Slight degree of vacuolization” value is recorded as 4 in the data set on tubular cells (setting [3]) and “four” in the data set with tubular cells (setting [4]). The “X-ray attenuation” value in data set [2] was “significantly lowest values”.
Turning to `CN(C(=O)CC(=O)N(C)c1c(I)c(C(=O)NC(CO)C(O)CO)c(I)c(C(=O)NC(CO)C(O)CO)c1I)c1c(I)c(C(=O)NC(CO)C(O)CO)c(I)c(C(=O)NC(CO)C(O)CO)c1I` (centres unmarked) [iotrolan 300], the “iodine concentration in the kidney (XFA)” value in data set [1] is given as 3.4+/−0.6 mg of iodine per g of kidney tissue. In data set [2], the “X-ray attenuation” value was 217.2+/−29.4 HU.
